Laboratory results reported in patent US7034020B2, “Derivatives of butyric acid and uses thereof” (The University of Arkansas for Medical Science, priority 1999, dated 2006).

How the values were obtained:
[1] = test system: isotype-specific anti-ovalbumin antibody; assay: Isotype-specific anti-ovalbumin antibody after a single dose of MEB, primary and secondary response; format: in vivo, C57BL/10 mice
Experimental: C57BL/10 mice are injected ip with ovalbumin/CFA on day 0, followed by a single ip injection of saline or MEB (0.15 mmol) on Days 2 or 3. The mice are reimmunized with ovalbumin sc on Day 10. Isotype-specific anti-ovalbumin antibody generated during the primary immune response (FIG. 4A), and the secondary immune response (FIG. 4B) are measured in the serum at day 10 and day 16, respectively. (FIG. 4C). […] This experiment was repeated, and the proliferation data represents the means of the two experiments.
The butyrate derivatives are tested for their ability to suppress lymphocyte activity in vivo. C57BL/10 mice (5 mice/group) are injected ip with 100 μg of ovalbumin in conjunction with complete Freund's adjuvant on Day 0. In one experiment, the mice also receive one ip injection per day of the butyrate derivatives (0.091 mmol) on Days 1–3. Serum samples are obtained 10 days after the initial injection with ovalbumin, and tested for the presence of anti-ovalbumin antibodies using an ELISA. To perform the ELISA 96 well plates (Costar 3595) are first incubated with ovalbumin (100 μl/well of 100 μg/ml in PBS) overnight at 4° C. The plates are then washed 4 times with PBS and 0.5% Tween 20, blocked with 1% fetal calf serum for 30 minutes at 37° C., and washed again. Individual serum samples are added (diluted 1/100 or 1/1000 in PBS), and the plates are incubated for 2 hours at 20° C. The plates were next washed 7 times with PBS/Tween, and alkaline phosphate (AP)-labeled goat anti-mouse IgG, IgA, IgM (H+L) (Zymed) is added ( 1/1000) for 1 hour at 20° C. The plates are again washed 7 times with PBS/Tween, alkaline phosphate substrate (1 mg/ml) is added. After 10 minutes, Ig levels are quantified by an ELISA reader (absorbance 405 nm). The concentration of anti-ovalbumin is determined by comparison with a standard curve obtained using mouse anti-ovalbumin antibody (Sigma; St. Louis, Mo.). To measure isotype-specific anti-ovalbumin antibodies, serum samples (diluted at 1/300 or 1/1000) are incubated on the ovalbumin-coated plates as described above. After washing, biotinylated detecting antibodies directed against mouse IgG2a (rat IgG1, clone R19–15), IgG2b (rat IgG2a, clone R12–3) IgG1 (rat IgG1, clone A85–1), or IgM (rat IgG2a, clone R6–60.2) (all purchased from PharMingen, La Jolla, Calif.) are added at 2.5 μg/ml for one hour at 20° C. followed by AP-labeled ExtrAvidin (Sigma) for one hour at 20° C. and AP substrate. Ig levels are presented as OD measurements. […]

[2] = test system: KLH-specific Th1 cells (clone C3); assay: Cell cycle analysis (DNA content) of IL-2-stimulated Th1 cells; format: cell-based, C57BL/10 mice
Experimental: KLH-specific, Th1 cells (clone C3) are left unstimulated (resting), or are stimulated with IL-2 (10% Con A CM) in the presence or absence of MEB (1 mM). The Th1 cells are collected after 48 hours, and assayed for DNA content.
KLH-specific Th1 cells (clone C3) were stimulated with IL-2 (10% Con A CM) at the initiation of culture, and then again at 24, 48, and 96 hours (FIG. 8A). Some cultures also received a single dose of MEB (1 mM) at times 0, 15, 24 or 39 hours after the initiation of culture (FIGS. 8B, 8C, 8D, and 8E, respectively). The Th1 cells were collected at 0, 48, 72, 96 or 120 hours after the initiation of culture and assayed for DNA content.
If the ability of butyrate and its derivatives to induce Th1 cell tolerance is linked to their ability to block antigen-activated Th1 cells in G1, their therapeutic importance is enhanced if MEB induces G1 cell cycle blockade regardless of when in the cell cycle the compound is added. MEB is added to cultures of IL-2-stimulated Th1 at various time points. In the absence of MEB, it is shown that approximately 50% of IL-2-activated Th1 cells have exited G1 by Day 2 (FIG. 8). I n contrast, if MEB is added at the initiation of culture, over 97% of the IL-2-stimulated Th1 cells remain in G0/G1 for the duration of the experiment (120 hours). […] If MEB is added 24 hours instead of 15 hours after IL-2 stimulation, 89% of the Th1 cells are blocked in G1 phase by 48 h, and the cell cycle profile looks very similar to that obtained if MEB is added at the initiation of culture. Finally, even if MEB is added as late as 39 hours after IL-2 stimulation, 87% of the Th1 cells (as compared to 49.9% of controls) are sequestered in G0/G1 when DNA content is measured at 72 hours.
To examine DNA content, Th1 cells were fixed in prechilled 70% ethanol overnight at 4° C. The fixed Th1 cells were next washed in PBS, resuspended in 1 ml of staining buffer containing RNase (1 mg/ml; Sigma) and propidium iodide (50 μg/ml; Sigma), incubated for 20 minutes in the dark at 20° C., and analyzed by flow cytometry using a FACSCalibur (Becton Dickinson, Moutain View, Calif.). The data were analyzed using the ModFit DNA analysis program (Verity Software House).

[3] = single ip dose 0.15 mmol on Day 2 or 3, serum day 10
[4] = single ip dose 0.15 mmol on day 2, serum day 10
[5] = single ip dose 0.15 mmol on day 2 or day 3, reimmunized Day 10, serum day 16
[6] = single ip dose 0.15 mmol, reimmunized Day 10, serum day 16

SMILES: CCCC(=O)OCCN1CCOCC1.Cl [MEB, 2-(4-Morpholinyl)ethyl butyrate hydrochloride]
- IgG2a anti-ovalbumin antibody, primary response [1, 3]: significantly decreased
- IgG2b anti-ovalbumin antibody, primary response [1, 3]: significantly decreased
- IgG, anti-ovalbumin antibody, primary response [1, 4]: decreased, albeit not dramatically
- IgM anti-ovalbumin antibody, primary response [1, 4]: decreased, albeit not dramatically
- Decrease of IgG2a anti-ovalbumin antibody, secondary response, compared to controls [1, 5]: 80%
- Decrease of IgG2b anti-ovalbumin antibody, secondary response, compared to controls [1, 5]: 80%
- IgG1 anti-ovalbumin production, secondary response [1, 6]: significantly decreased
- IgM anti-ovalbumin production, secondary response [1, 6]: unaffected
- Th1 cells remaining in G0/G1 ([2]; IL-2 (10% Con A CM) plus MEB 1 mM, 48 hours): essentially all
- IL-2-stimulated Th1 cells in G0/G1 ([2]; MEB 1 mM added 15 hours after IL-2, by 96 hours (control 56.9%)): 79.3%
- IL-2-stimulated Th1 cells in G1 ([2]; MEB 1 mM added 24 hours after IL-2, by 48 h): 89%
- IL-2-stimulated Th1 cells in G0/G1 ([2]; MEB 1 mM added 39 hours after IL-2, at 72 hours (control 49.9%)): 87%
- IL-2-stimulated Th1 cells in G0/G1 ([2]; MEB 1 mM added at initiation of culture, for duration of experiment (120 hours)): over 97%
